As a reminder, the IC50 is the midpoint of a concentration-inhibition curve.

Data on 64 compounds can be found in patent US20230279020A9, “CARM1 INHIBITORS AND USES THEREOF” (Epizyme, Inc., priority 2013, published 2023).

Sequence of Human CARM1 (PRMT4) (Q86X55 other isoform, or with tags, fused parts or gaps isoform Q86X55-1): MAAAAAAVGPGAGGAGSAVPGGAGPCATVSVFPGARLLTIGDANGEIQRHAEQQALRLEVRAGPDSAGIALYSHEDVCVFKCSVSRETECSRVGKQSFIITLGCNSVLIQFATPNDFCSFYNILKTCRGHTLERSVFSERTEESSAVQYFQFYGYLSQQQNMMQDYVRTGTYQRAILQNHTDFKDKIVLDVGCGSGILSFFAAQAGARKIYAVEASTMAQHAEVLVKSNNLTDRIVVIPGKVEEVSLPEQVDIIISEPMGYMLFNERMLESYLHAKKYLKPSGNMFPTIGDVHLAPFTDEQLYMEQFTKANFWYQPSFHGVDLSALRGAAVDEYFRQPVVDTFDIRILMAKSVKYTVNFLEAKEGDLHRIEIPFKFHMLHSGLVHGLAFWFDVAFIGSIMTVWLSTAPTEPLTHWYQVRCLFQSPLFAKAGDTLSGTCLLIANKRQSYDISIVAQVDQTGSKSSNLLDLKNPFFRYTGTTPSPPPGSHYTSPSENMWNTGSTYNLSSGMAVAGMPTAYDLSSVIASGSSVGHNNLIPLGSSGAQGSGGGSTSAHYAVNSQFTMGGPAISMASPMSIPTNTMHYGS

This test concerns the target Human CARM1 (PRMT4) (Homo sapiens (Human), UniProt Q86X55). The experiment in a line: CARM1 enzyme assay on peptide substrate (3H-SAM Flashplate). Particulars: Biochemical potencies, classification codes; read-out: Biochem IC50.
Turning to `CNCC(O)COc1cccc(-c2nc(NC3CCOC3)c(C)c(N3CC4(CCNCC4)c4ccccc43)n2)c1` (stereo not shown) [Example 398-1a], the IC50 is less than 100 nM. `CNCC(O)COc1cccc(-c2nc(N[C@@H]3CCOC3)c(C)c(-c3ccc(OC)nc3)n2)c1` (stereo partly shown) [Example 408-1a]: the IC50 is less than 100 nM. Next, `CNCC(O)COc1cccc(-c2nc(N[C@@H]3CCOC3)c(C)c(N3CC4CCC(C3)O4)n2)c1` (stereo partly shown) [Example 412-1a]: less than 100 nM; `CNCC(O)COc1cccc(-c2nc(N[C@@H]3CCOC3)c(C)c(C3=CC(C)(C)NC(C)(C)C3)n2)c1` (stereo partly shown) [Example 415-1a]: less than 100 nM; `CNCC(O)COc1cccc(-c2nc(NC3CCOC3)c(C)c(N3CCN(C(C)=O)C[C@H]3C)n2)c1` (stereo partly shown) [Example 421-1a]: less than 100 nM. Regarding `CNCC(O)COc1cccc(-c2nc(N[C@@H]3CCOC3)c(C)c(N3CCNCC3)n2)c1` (stereo partly shown) [Example 422-1a], the IC50 is less than 100 nM.

Regarding `CNCC(O)COc1cccc(-c2nc(N[C@@H]3CCOC3)c(C)c(N3CCC4(CC3)CNC(=O)C4)n2)c1` (stereo partly shown) [Example 424-1a], the IC50 was less than 100 nM.

`CNCC(O)COc1cccc(-c2nc(N[C@@H]3CCOC3)c(C)c(N3CCS(=O)(=O)CC3)n2)c1` (stereo partly shown) [Example 425-1a]: the IC50 was less than 100 nM.

With `CNCC(O)COc1cccc(-c2nc(N[C@@H]3CCOC3)c(C)c(N3Cc4ccncc4C3)n2)c1` (stereo partly shown) [Example 427-1a], the IC50 was less than 100 nM.

With `CNCC(O)COc1cccc(-c2nc(N[C@@H]3CCOC3)c(C)c(N3CCC4(CCNCC4)CC3)n2)c1` (stereo partly shown) [Example 429-1a], the IC50 was less than 100 nM.

In the case of `CNCC(O)COc1cccc(-c2nc(N[C@@H]3CCOC3)c(C)c(N3CCN(S(C)(=O)=O)CC3)n2)c1` (stereo partly shown) [Example 434-1a], the IC50 was less than 100 nM. Next, `CNCC(O)COc1cccc(-c2nc(N[C@@H]3CCOC3)c(C)c(N3CCN(C)C(=O)C3)n2)c1` (stereo partly shown) [Example 435-1a]: less than 100 nM; `CNCC(O)COc1cccc(-c2nc(N[C@@H]3CCOC3)c(C)c(N3CCN(C4CC4)CC3)n2)c1` (stereo partly shown) [Example 436-1a]: less than 100 nM.

As for `CNCC(O)COc1cccc(-c2nc(N[C@@H]3CCOC3)c(C)c(N3CC[C@@H](O)C3)n2)c1` (stereo partly shown) [Example 437-1a], the IC50 is less than 100 nM. Next, `CNCC(O)COc1cccc(-c2nc(N[C@@H]3CCOC3)c(C)c(N3CCN(C(C)=O)C(C)(C)C3)n2)c1` (stereo partly shown) [Example 439-1a]: less than 100 nM; `CNCC(O)COc1cccc(-c2nc(N[C@@H]3CCOC3)c(C)c(N3C[C@H]4CNC[C@H]4C3)n2)c1` (stereo partly shown) [Example 440-1a]: less than 100 nM; `CNCC(O)COc1cccc(-c2nc(N[C@@H]3CCOC3)c(C)c(N3CCC(S(C)(=O)=O)CC3)n2)c1` (stereo partly shown) [Example 441-1a]: less than 100 nM.

As for `CNCC(O)COc1cccc(-c2nc(NC3CCOC3)c(C)c(N3CC(N)CC(Cl)C3)n2)c1` (stereo not shown) [Example 442-1a], the IC50 was less than 100 nM. Next, `CNCC(O)COc1cccc(-c2nc(N[C@@H]3CCOC3)c(C)c(N3C[C@H]4C[C@@H]3CN4C)n2)c1` (stereo partly shown) [Example 443-1a]: less than 100 nM. Next, `CNCC(O)COc1cccc(-c2nc(NC3CCOC3)c(C)c(N3CCN(CCF)CC3)n2)c1` (stereo not shown) [Example 446-1a]: less than 100 nM; `CNCC(O)COc1cccc(-c2nc(NC3CCOC3)c(C)c(N3CCN(C(=O)OC)C(C)(C)C3)n2)c1` (stereo not shown) [Example 447-1a]: less than 100 nM; `CCS(=O)(=O)N1CCN(c2nc(-c3cccc(OCC(O)CNC)c3)nc(NC3CCOC3)c2C)CC1(C)C` (stereo not shown) [Example 448-1a]: less than 100 nM.

In the case of `CNCC(O)COc1cccc(-c2nc(NC3CCOC3)c(C)c(N3CCN(CC(F)(F)F)CC3)n2)c1` (stereo not shown) [Example 449-1a], the IC50 is less than 100 nM.

For the compound `CNCC(O)COc1cccc(-c2nc(NC3CCOC3)c(C)c(N3CC4CC(C3)N4)n2)c1` (stereo not shown) [Example 452-1a], the IC50 is less than 100 nM. Next, `CNCC(O)COc1cccc(-c2nc(NC3CCOC3)c(C)c(N3CCN4C(=O)OC[C@@H]4C3)n2)c1` (stereo partly shown) [Example 454-1a]: less than 100 nM. As for `CNCC(O)COc1cccc(-c2nc(NC3CCOC3)c(C)c(N3CCN(C)C(C)(C)C3)n2)c1` (stereo not shown) [Example 455-1a], the IC50 was less than 100 nM. Turning to `CCOC(=O)N1CCN(c2nc(-c3cccc(OCC(O)CNC)c3)nc(N[C@@H]3CCOC3)c2C)CC1` (stereo partly shown) [Example 456-1a], the IC50 was less than 100 nM.

Regarding `CNCC(O)COc1cccc(-c2nc(NC3CCOC3)c(C)c(N3CCN(CC(F)F)C(C)(C)C3)n2)c1` (stereo not shown) [Example 457-1a], the IC50 is less than 100 nM. Take `CNCC(O)COc1cccc(-c2nc(N[C@@H]3CCOC3)c(C)c(N3CCN(CC(F)F)CC3)n2)c1` (stereo partly shown) [Example 458-1a]: the IC50 was less than 100 nM. Next, `CNCC(O)COc1cccc(-c2nc(N[C@@H]3CCOC3)c(C)c(N3CCC(c4cccnc4)C3)n2)c1` (stereo partly shown) [Example 461-1a]: less than 100 nM. Consider `CNCC(O)COc1cccc(-c2nc(N[C@@H]3CCOC3)c(C)c(N3CCC4(CCOCC4)C3)n2)c1` (stereo partly shown) [Example 462-1a], for which the IC50 is less than 100 nM. Consider `CNCC(O)COc1cccc(-c2nc(N[C@@H]3CCOC3)c(C)c(N3CCN(C)[C@H](C)C3)n2)c1` (stereo partly shown) [Example 463-1a], for which the IC50 was less than 100 nM. Next, `CCS(=O)(=O)N1CCN(c2nc(-c3cccc(OCC(O)CNC)c3)nc(N[C@@H]3CCOC3)c2C)CC1` (stereo partly shown) [Example 464-1a]: less than 100 nM; `CNCC(O)COc1cccc(-c2nc(N[C@@H]3CCOC3)c(C)c(N3Cc4nc(C)sc4C3)n2)c1` (stereo partly shown) [Example 465-1a]: less than 100 nM. Next, `CNCC(O)COc1cccc(-c2nc(N[C@@H]3CCOC3)c(C)c(N3CCN(C4CC4)[C@H](C)C3)n2)c1` (stereo partly shown) [Example 466-1a]: less than 100 nM; `CNCC(O)COc1cccc(-c2nc(N[C@@H]3CCOC3)c(C)c(N3CC[C@@H](c4cccnc4)C3)n2)c1` (stereo partly shown) [Example 467-1a]: less than 100 nM. Next, `CNCC(O)COc1cccc(-c2nc(N[C@@H]3CCOC3)c(C)c(N3CCC(n4nc(C)cc4C)C3)n2)c1` (stereo partly shown) [Example 468-1a]: less than 100 nM; `CNCC(O)COc1cccc(-c2nc(N[C@@H]3CCOC3)c(C)c(N3CCCC4(CN(CC(F)F)C4)C3)n2)c1` (stereo partly shown) [Example 469-1a]: less than 100 nM; `CCOC(=O)N1CCN(c2nc(-c3cccc(OCC(O)CNC)c3)nc(N[C@@H]3CCOC3)c2C)C[C@H]1C` (stereo partly shown) [Example 470-1a]: less than 100 nM. Regarding `CNCC(O)COc1cccc(-c2nc(N[C@@H]3CCOC3)c(C)c(N3CCN(CC(F)F)[C@H](C)C3)n2)c1` (stereo partly shown) [Example 471-1a], the IC50 was less than 100 nM. Next, `CNCC(O)COc1cccc(-c2nc(N[C@@H]3CCOC3)c(C)c(N3CCC4(CN(CC(F)F)C4)C3)n2)c1` (stereo partly shown) [Example 475-1a]: less than 100 nM; `CNCC(O)COc1cccc(-c2nc(-c3cnc4c(C(=O)OC)cnn4c3)cc(N(C)C3CCOCC3)n2)c1` (stereo not shown) [Example 482-1a]: less than 100 nM. With `CNCC(O)COc1cccc(-c2nc(-c3cn(S(C)(=O)=O)c4ncncc34)cc(N(C)C3CCOCC3)n2)c1` (stereo not shown) [Example 483-1a], the IC50 was less than 100 nM.

With `CNCC(O)COc1cccc(-c2nc(-c3cn(C)c4ncncc34)cc(N(C)C3CCOCC3)n2)c1` (stereo not shown) [Example 485-1a], the IC50 was less than 100 nM. Next, `CNC[C@H](O)COc1cccc(-c2nc(-c3cnc4cnccn34)cc(N(C)C3CCOCC3)n2)c1` [Example 486-1a]: less than 100 nM; `CNCC(O)COc1cccc(-c2nc(N(C)c3cncnc3)cc(N(C)C3CCOCC3)n2)c1` (stereo not shown) [Example 487-1a]: less than 100 nM. On to `CNC[C@@H](O)COc1cccc(-c2nc(-c3cn(S(C)(=O)=O)c4ncncc34)c(C)c(N(C)C3CCOCC3)n2)c1` [Example 488-1a], for which the IC50 was less than 100 nM. Next, `CNCC(O)COc1cccc(-c2nc(-c3cnc4ncccn34)cc(N(C)C3CCOCC3)n2)c1` (stereo not shown) [Example 489-1a]: less than 100 nM; `CNCC(O)COc1cccc(-c2nc(-c3cnc4cnccn34)cc(N(C)C3CCOCC3)n2)c1` (stereo not shown) [Example 490-1a]: less than 100 nM. Next, `CNCC(O)COc1cccc(-c2nc(-c3ncc(C)n3C)cc(N(C)C3CCOCC3)n2)c1` (stereo not shown) [Example 491-1a]: less than 100 nM; `CNCC(O)COc1cc(OC)cc(-c2nc(-c3cnc4cnccn34)cc(N(C)C3CCOCC3)n2)c1` (stereo not shown) [Example 492-1a]: less than 100 nM.

As for `CNCC(O)COc1cccc(-c2nc(-c3csnc3C)cc(N(C)C3CCOCC3)n2)c1` (stereo not shown) [Example 493-1a], the IC50 is less than 100 nM. Next, `CNCC(O)COc1cccc(-c2nc(-c3scnc3C)cc(N(C)C3CCOCC3)n2)c1` (stereo not shown) [Example 495-1a]: less than 100 nM; `CNCC(O)COc1cccc(-c2nc(-c3c(C)nn(C(C)C)c3C)cc(N(C)C3CCOCC3)n2)c1` (stereo not shown) [Example 496-1a]: less than 100 nM.

Consider `CNCC(O)COc1cccc(-c2nc(-c3ccnc(C#N)c3)cc(N(C)C3CCOCC3)n2)c1` (stereo not shown) [Example 498-1a], for which the IC50 was less than 100 nM. Next, `CNCC(O)COc1cccc(-c2nc(-c3ccc(S(C)(=O)=O)cc3)cc(N(C)C3CCOCC3)n2)c1` (stereo not shown) [Example 499-1a]: less than 100 nM; `CNCC(O)COc1cccc(-c2nc(N3CCOCC3)c(F)c(N(C)C3CCOCC3)n2)c1` (stereo not shown) [Example 500-1a]: less than 100 nM. In the case of `CNCC(O)COc1cccc(-c2nc(-c3cn(C)cn3)cc(N(C)C3CCOCC3)n2)c1` (stereo not shown) [Example 501-1a], the IC50 was less than 100 nM. As for `CNCC(O)COc1cccc(-c2nc(N3CCN(C)[C@@H](C)C3)cc(N(C)C3CCOCC3)n2)c1` (stereo partly shown) [Example 502-1a], the IC50 is less than 100 nM. Take `CNCC(O)COc1cccc(-c2nc(-c3ccnc(C(C)(C)O)c3)cc(N(C)C3CCOCC3)n2)c1` (stereo not shown) [Example 503-1a]: the IC50 is less than 100 nM.

In the case of `CNCC(O)COc1cccc(-c2nc(-c3c[nH]c4ncncc34)cc(N(C)C3CCOCC3)n2)c1` (stereo not shown) [Example 504-1a], the 50% inhibitory concentration (IC50) is less than 100 nM.

As to `CC[C@H]1CN(c2cc(N(C)C3CCOCC3)nc(-c3cccc(OCC(O)CNC)c3)n2)CCN1` (stereo partly shown) [Example 505-1a], the IC50 was less than 100 nM. `CNCC(O)COc1cc(Cl)cc(-c2nc(Nc3cncnc3)c(C)c(N(C)C3CCOCC3)n2)c1` (stereo not shown) [Example 506-1a]: the half-maximal inhibitory concentration (IC50) was less than 100 nM. Next, `CNC[C@@H](O)COc1cccc(-c2nc(-c3cnc4cnccn34)cc(N(C)C3CCOCC3)n2)c1` [Example 507-1a]: less than 100 nM.
